Calls of active or inactive are those of the source.
Tests used:
INS1 = experiment: beta cell apoptosis inhibitors, cytokine rescue, dose response, luminescence, retest (AID 449756); type: functional, cell-based; conditions: Rattus norvegicus;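 further: cell death triggered by IL-1 beta plus TNF-alpha plus IFN-gamma mixture; protective hits raise ATP signal compared with cytokine alone wells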
[1] = cytotoxicity in HEK-293T cells, dose response, cytotoxicity control for TCR NF-kB inhibitor project, luminescence, T-cell screen hits (AID 489026); type: functional, cell-based;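 further: cells exposed to compound about 14 hours before the viability readout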
[2] = biological target: T1, COUP transcription factor 2 (Homo sapiens, UniProt P24468); experiment: Luminescence-based cell-based high throughput dose response assay to identify inhibitors of COUP-TFII (NR2F2).; type: functional;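 further: HEK293 cells transiently cotransfected with COUP-TFII expression vector and reporter; luciferase reporter luminescence driven by COUP-TFII from the pX2-168 reporter plasmid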
T1 sequence (P24468 whole entry): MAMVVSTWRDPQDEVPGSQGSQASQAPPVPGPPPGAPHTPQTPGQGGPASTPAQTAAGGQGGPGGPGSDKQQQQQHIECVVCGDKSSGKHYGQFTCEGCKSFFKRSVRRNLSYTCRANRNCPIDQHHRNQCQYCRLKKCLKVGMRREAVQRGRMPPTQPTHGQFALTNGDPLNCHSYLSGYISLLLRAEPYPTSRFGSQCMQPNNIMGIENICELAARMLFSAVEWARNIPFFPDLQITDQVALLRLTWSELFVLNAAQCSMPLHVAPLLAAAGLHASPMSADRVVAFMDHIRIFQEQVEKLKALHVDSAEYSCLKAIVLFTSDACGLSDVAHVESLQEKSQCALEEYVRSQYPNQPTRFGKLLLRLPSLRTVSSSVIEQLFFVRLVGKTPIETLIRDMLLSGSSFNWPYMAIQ

cells = type: functional, cell-based; conditions: HEK-CNG
Galanin receptor type 3 = biological target: T2, Galanin receptor type 3 (Homo sapiens, UniProt O60755); experiment: Fluorescence-based cell-based primary high throughput dose response assay to identify antagonists of the Galanin Receptor 3 (GalR3).; type: functional
T2 sequence (O60755 whole entry): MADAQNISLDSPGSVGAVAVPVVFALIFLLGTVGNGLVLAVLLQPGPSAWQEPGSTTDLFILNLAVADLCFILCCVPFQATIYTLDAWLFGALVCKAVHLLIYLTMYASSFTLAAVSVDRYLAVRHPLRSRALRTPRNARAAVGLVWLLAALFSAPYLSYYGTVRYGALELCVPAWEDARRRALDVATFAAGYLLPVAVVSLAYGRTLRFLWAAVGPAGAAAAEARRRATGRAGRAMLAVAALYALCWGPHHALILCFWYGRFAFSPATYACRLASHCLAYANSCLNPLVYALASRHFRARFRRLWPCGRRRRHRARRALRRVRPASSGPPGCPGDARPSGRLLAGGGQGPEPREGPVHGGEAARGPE

Paired box protein Pax-8 = Paired box protein Pax-8 (Homo sapiens, UniProt Q06710); experiment: inhibitors of PAX8-driven TPO luciferase reporter, dose response, RMG-I cells, cherry-pick (AID 687027); type: functional, cell-based;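 further: luciferase reporter driven by Pax8 target thyroperoxidase promoter measured by SteadyGlo luminescence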
Sequence of Paired box protein Pax-8 (Q06710 whole entry): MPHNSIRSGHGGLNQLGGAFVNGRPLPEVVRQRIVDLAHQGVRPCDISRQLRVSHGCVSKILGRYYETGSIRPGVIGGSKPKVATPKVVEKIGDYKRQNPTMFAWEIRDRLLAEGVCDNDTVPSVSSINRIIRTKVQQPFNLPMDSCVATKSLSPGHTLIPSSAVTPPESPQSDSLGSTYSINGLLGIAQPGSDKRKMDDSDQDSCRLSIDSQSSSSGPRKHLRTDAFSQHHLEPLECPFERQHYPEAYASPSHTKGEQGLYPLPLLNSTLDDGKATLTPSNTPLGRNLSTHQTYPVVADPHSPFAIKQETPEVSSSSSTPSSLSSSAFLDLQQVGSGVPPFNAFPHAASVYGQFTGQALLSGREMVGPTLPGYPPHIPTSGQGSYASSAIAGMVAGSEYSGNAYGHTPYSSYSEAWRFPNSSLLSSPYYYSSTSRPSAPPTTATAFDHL

[3] = P. falciparum Dd2 growth inhibitors, dose response, SYBR Green, cherry-picked samples (AID 1159567); type: functional, cell-based
[4] = cytotoxicity in OVCAR8 ovarian cancer cells, dose response, PAX8 project, cell-based, plate reader, dry powder samples (AID 743197); type: functional; conditions: OVCAR-8
[5] = T. cruzi growth inhibition in host cells, dose response, cell-based, plate reader, dry powder, set 2 (AID 652275); type: functional
[6] = HEK293 cell cytotoxicity, dose response, cytotoxicity control, cherry-picks, set 5 (AID 1053117); type: functional, cell-based
[7] = P. falciparum 3D7-ScDHODH growth inhibitors, dose response, SYBR Green, dry powder samples (AID 1159570); type: functional, cell-based;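 further: parasite growth measured after 72 hours of compound exposure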
[8] = HepG2 cell cytotoxicity, dose response, cytotoxicity control, plate reader, dry powder samples (AID 1159569); type: functional, cell-based;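 further: inhibitor potency with signal falling toward the positive control level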
[9] = P. falciparum ATP4 D1247Y mutant growth inhibitors, dose response, NITD609-resistant line, SYBR Green, dry powder (AID 1159571); type: functional, cell-based;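 further: parasites synchronized at ring stage by sorbitol before testing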
[10] = P. falciparum Dd2 growth inhibitors, dose response, SYBR Green, dry powder samples (AID 1159566); type: functional, cell-based;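 further: potency for growth inhibition with lower SYBR green DNA signal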
[11] = HepG2 cell cytotoxicity, dose response, cytotoxicity control, cherry-picked samples (AID 1159577); type: functional, cell-based
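Wherever EC50 is given: target is galanin receptor GalR3 read with a cAMP biosensor in HEK293 cells.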

Cc1cc(C)c(CN2CCN(C(=O)Cn3cnc4c(OCc5ccccc5)ncnc43)CC2)c(C)c1
AC50 (INS1): 3.51 µM (active)
IC50 [1]: > 80 µM (inactive)
IC50 [2]: 5.99 µM (active)
EC50 (cells): > 29.9 µM (inactive)
IC50 (Galanin receptor type 3): 2.86 µM (active)

C[C@H]1CN([C@@H](C)CO)C(=O)c2c(c3ccccc3n2C)-c2ccccc2CO[C@@H]1CN(C)S(=O)(=O)c1cccc(F)c1
AC50 (Paired box protein Pax-8): 11.6 µM (active)
AC50 [3]: 4.88 µM (active)
AC50 [4]: 37.3 µM (active)

COc1cccc(-c2ccc([C@H]3[C@H](CO)N4CCCCN(C(=O)Cc5ccncc5)C[C@@H]34)cc2)c1
AC50 [5]: 2.13 µM (active)

CC(C)(O)C#Cc1cccc(-c2nc(C(=O)NCc3ccc4c(c3)OCO4)cc3c2[C@H](CCO)N([S+]([O-])C(C)(C)C)C3)c1 (stereo partly drawn)
AC50 [5]: 2.44 µM (active)

C[C@H](CO)N1C[C@H](C)[C@@H](CN(C)C(=O)c2cccc(F)c2)Oc2ncc(-c3ccccc3)cc2C1=O
AC50 [6]: > 52 µM (inactive)

CC(C)N1C[C@H](C)[C@@H](CN(C)Cc2ccc(Oc3ccccc3)cc2)Oc2c(cccc2-c2nn[nH]n2)C1=O
AC50 [5]: 7.34 µM (active)

CCC(=O)N1CC2(CCN(C(=O)Nc3ccccc3F)CC2)c2c([nH]c3cc(OC)ccc23)[C@H]1CO
AC50 [7]: 1.2 µM (active)
AC50 [8]: 50.4 µM (active)
AC50 [9]: 0.934 µM (active)
AC50 [3]: 1.24 µM (active)
AC50 [10]: 1.1 µM (active)

C[C@H]1CN([C@@H](C)CO)C(=O)c2cc(C#CCc3ccccc3)cnc2O[C@@H]1CN(C)CC1CCCC1
AC50 [3]: 4.29 µM (active)
AC50 [11]: 11.2 µM (active)

COc1ccccc1C#Cc1ccc([C@H]2[C@@H](C#N)N(C(=O)C3CCCC3)[C@@H]2CO)cc1
AC50 [3]: 5.1 µM (active)
AC50 [11]: > 39 µM (inactive)

CCC(=O)N1[C@H](CO)[C@H](c2ccc(C3=CCCC3)cc2)[C@H]1CNCC1CCCC1
AC50 [3]: 3.77 µM (active)
AC50 [11]: > 39 µM (inactive)

COc1ccc(NC(=O)Nc2cccc3c2O[C@H](CN(C)C(=O)Nc2cccc4ccccc24)[C@H](C)CN([C@@H](C)CO)C3=O)cc1
AC50 [7]: 1.64 µM (active)
AC50 [8]: > 100 µM (inactive)
AC50 [9]: 0.971 µM (active)
AC50 [3]: 2.54 µM (active)
AC50 [10]: 0.547 µM (active)

Source: ChEMBL document CHEMBL1201862, “PubChem BioAssay data set” (2004)
